Measured values taken from patent US11795460B2, “Compositions and methods for TTR gene editing and treating ATTR amyloidosis” (Intellia Therapeutics, Inc., priority 2017, dated 2023).
Strand notation (5' to 3'): a small letter for the sugar, then the base; units joined by * are phosphorothioate-linked, units joined directly phosphodiester-linked; [ ] holds rarer units or linkages, { } end groups; capitals alone tell only the bases. m = 2'-O-methyl; r = 2'-OH (RNA)

Legend:
TTR [1] = test: TTR editing in HepG2 cells transfected with Spy Cas9 mRNA and dgRNAs (Table 6); type: cell-based, human; details: HepG2 cells co-transfected with Spy Cas9 mRNA (SEQ ID NO:2) and dgRNAs
Outline: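 HepG2 cells were transfected sequentially by lipofection with Spy Cas9 mRNA (100 ng), then crRNA plus tracer RNA (25 nM each), and harvested at 24, 48 or 72 h. Editing was measured by amplicon NGS at the TTR target site as the fraction of reads with indels or substitutions.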

TTR [2] = test: TTR editing in primary human hepatocytes transfected with Spy Cas9 protein (RNP) loaded with dgRNAs (Table 8); type: cell-based; details: dgRNA transfected with Spy Cas9 protein (RNP)
Outline: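 Primary human hepatocytes were lipofected (RNAiMAX) with RNP of Spy Cas9 (10 nM) plus pre-annealed crRNA (10 nM) and trRNA (10 nM) and harvested 24, 48 or 72 h later. Target-site amplicons were sequenced on Illumina MiSeq and aligned to hg38; percent editing = reads with indels or substitutions over total reads.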

off-target genomic sites = test: Off-target oligo insertion based assay in HEK293_Cas9 cells, dgRNAs and sgRNAs (Tables 23, 24); type: cell-based, human; details: for # Sites (off-target integration sites detected): Table 24, TTR sgRNAs in HekCas9 cells, insertion detection method; for # Sites in HekCas9 cells (Example 5): Table 30, TTR sgRNAs, repeated from Example 5 for comparison
Procedure: An oligo insertion based assay (See, e.g., Tsai et al., Nature Biotechnology 33, 187-197; 2015) was used to determine potential off-target genomic sites cleaved by Cas9 targeting TTR. Forty-five dgRNAs from Table 1 (and two control guides with known off-target profiles) were screened in the HEK293 Cas9 cells. The human embryonic kidney adenocarcinoma cell line HEK293 constitutively expressing Spy Cas9 (“HEK293_Cas9”) was cultured in DMEM media supplemented with 10% fetal bovine serum and 500 μg/ml G418. Cells were plated at a density of 30,000 cells/well in a 96-well plate 24 hours prior to transfection. Cells were transfected with Lipofectamine RNAiMAX (ThermoFisher, Cat. 13778150) per the manufacturer's protocol. Cells were transfected with a lipoplex containing individual crRNA (15 nM), trRNA (15 nM), and donor oligo with (10 nM) Lipofectamine RNAiMAX (0.3 μL/well) and OptiMem. Cells were lysed 24 hours post transfection and genomic DNA was extracting using Zymo's Quick gDNA 96 Extraction kit (catalog #D3012) following the manufacturer's recommended protocol. The gDNA was quantified using the Qubit High Sensitivity dsDNA kit (Life Technologies). Libraries were prepared per the previously described method in Tsai et al, 2015 with minor modifications. Sequencing was performed on Illumina's MiSeq and HiSeq 2500. The assay identified potential off-target sites for some of the crRNAs which are plotted in FIG. 2.
Additionally, a subset of the guides was assessed for off-target potential as modified sgRNAs in the Hek_Cas9 cells via the oligo based insertion method described above. The off-target results were plotted in FIG. 4.

Row | Molecule | Avg % Deletion (TTR [1]) | Avg % Edit (TTR [1]) | Avg % Insert (TTR [1]) | Avg % Deletion (TTR [2]) | Avg % Edit (TTR [2]) | Avg % Insert (TTR [2]) | # Sites (off-target integration sites detected) (off-target genomic sites) | # Sites in HekCas9 cells (Example 5) (off-target genomic sites)
1 | AAUAGGAGUAGGGGCUCAGC (tested as dual guide RNA, chemistry not given here) [CR003384] | 0.25% | 3.37% | 3.12% | 0.17% | 3.56% | 3.39% |  | 
2 | ACCUCUGCAUGCUCAUGGAA (tested as dual guide RNA, chemistry not given here) [CR003371] | 1.84% | 15.91% | 14.07% | 1.57% | 18.80% | 17.23% |  | 
3 | AUGCAGCUCUCCAGACUCAC (tested as dual guide RNA, chemistry not given here) [CR003358] | 7.27% | 35.93% | 28.66% | 5.67% | 31.62% | 25.95% |  | 
4 | CCUCUGCAUGCUCAUGGAAU (tested as dual guide RNA, chemistry not given here) [CR003370] | 3.62% | 28.51% | 24.88% | 1.26% | 20.06% | 18.80% |  | 
5 | CUGAGGAGGAAUUUGUAGAA (tested as dual guide RNA, chemistry not given here) [CR003364] | 20.85% | 51.88% | 31.03% | 11.36% | 35.29% | 23.93% |  | 
6 | CUGGUAUUUGUGUCUGAGGC (tested as dual guide RNA, chemistry not given here) [CR003341] | 5.66% | 15.60% | 9.94% | 5.02% | 19.66% | 14.64% |  | 
7 | GCAUGGGCUCACAACUGAGG (tested as dual guide RNA, chemistry not given here) [CR003362] | 0.94% | 17.44% | 16.50% | 0.56% | 11.65% | 11.10% |  | 
8 | GCUGCAUGGGCUCACAACUG (tested as dual guide RNA, chemistry not given here) [CR003361] | 2.58% | 14.05% | 11.47% | 0.56% | 13.08% | 12.52% |  | 
9 | UACUCACCUCUGCAUGCUCA (tested as dual guide RNA, chemistry not given here) [CR003372] | 2.42% | 14.57% | 12.14% | 1.81% | 17.56% | 15.74% |  | 
10 | G000494: TTR sgRNA modified sequence, Human, SEQ ID No. 101; guide sequence of CR003360 (nucleic acid) guide: mG*mU*mG*rArGrUrCrUrGrGrArGrArGrCrUrGrCrArUrGrUrUrUrUrArGrAmGmCmUmAmGmAmAmAmUmAmGmCrArArGrUrUrArArArArUrArArGrGrCrUrArGrUrCrCrGrUrUrArUrCrAmAmCmUmUmGmAmAmAmAmAmGmUmGmGmCmAmCmCmGmAmGmUmCmGmGmUmGmCmU*mU*mU*mU |  |  |  |  |  |  | 4 | 4
11 | G000480: TTR sgRNA modified sequence, Human, SEQ ID No. 87; guide sequence of CR003353 (nucleic acid) guide: mA*mA*mA*rGrGrCrUrGrCrUrGrArUrGrArCrArCrCrUrGrUrUrUrUrArGrAmGmCmUmAmGmAmAmAmUmAmGmCrArArGrUrUrArArArArUrArArGrGrCrUrArGrUrCrCrGrUrUrArUrCrAmAmCmUmUmGmAmAmAmAmAmGmUmGmGmCmAmCmCmGmAmGmUmCmGmGmUmGmCmU*mU*mU*mU |  |  |  |  |  |  | 11 | 11
12 | G000483: TTR sgRNA modified sequence, Human, SEQ ID No. 90; guide sequence of CR005298 (nucleic acid) guide: mU*mC*mC*rArCrUrCrArUrUrCrUrUrGrGrCrArGrGrArGrUrUrUrUrArGrAmGmCmUmAmGmAmAmAmUmAmGmCrArArGrUrUrArArArArUrArArGrGrCrUrArGrUrCrCrGrUrUrArUrCrAmAmCmUmUmGmAmAmAmAmAmGmUmGmGmCmAmCmCmGmAmGmUmCmGmGmUmGmCmU*mU*mU*mU |  |  |  |  |  |  | 5 | 5
13 | G000482: TTR sgRNA modified sequence, Human, SEQ ID No. 89; guide sequence of CR003365 (nucleic acid) guide: mU*mG*mU*rArGrArArGrGrGrArUrArUrArCrArArArGrGrUrUrUrUrArGrAmGmCmUmAmGmAmAmAmUmAmGmCrArArGrUrUrArArArArUrArArGrGrCrUrArGrUrCrCrGrUrUrArUrCrAmAmCmUmUmGmAmAmAmAmAmGmUmGmGmCmAmCmCmGmAmGmUmCmGmGmUmGmCmU*mU*mU*mU |  |  |  |  |  |  | 13 | 13
14 | G000481: TTR sgRNA modified sequence, Human, SEQ ID No. 88; guide sequence of CR003345 (nucleic acid) guide: mU*mC*mU*rArGrArArCrUrUrUrGrArCrCrArUrCrArGrGrUrUrUrUrArGrAmGmCmUmAmGmAmAmAmUmAmGmCrArArGrUrUrArArArArUrArArGrGrCrUrArGrUrCrCrGrUrUrArUrCrAmAmCmUmUmGmAmAmAmAmAmGmUmGmGmCmAmCmCmGmAmGmUmCmGmGmUmGmCmU*mU*mU*mU |  |  |  |  |  |  | 3 | 3
15 | G000499: TTR sgRNA modified sequence, Human, SEQ ID No. 106; guide sequence of CR005303 (nucleic acid) guide: mU*mG*mA*rArUrCrCrArArGrUrGrUrCrCrUrCrUrGrArGrUrUrUrUrArGrAmGmCmUmAmGmAmAmAmUmAmGmCrArArGrUrUrArArArArUrArArGrGrCrUrArGrUrCrCrGrUrUrArUrCrAmAmCmUmUmGmAmAmAmAmAmGmUmGmGmCmAmCmCmGmAmGmUmCmGmGmUmGmCmU*mU*mU*mU |  |  |  |  |  |  | 4 | 4
16 | G000489: TTR sgRNA modified sequence, Human, SEQ ID No. 96; guide sequence of CR003344 (nucleic acid) guide: mU*mU*mU*rGrArCrCrArUrCrArGrArGrGrArCrArCrUrGrUrUrUrUrArGrAmGmCmUmAmGmAmAmAmUmAmGmCrArArGrUrUrArArArArUrArArGrGrCrUrArGrUrCrCrGrUrUrArUrCrAmAmCmUmUmGmAmAmAmAmAmGmUmGmGmCmAmCmCmGmAmGmUmCmGmGmUmGmCmU*mU*mU*mU |  |  |  |  |  |  | 19 | 19
17 | G000486: TTR sgRNA modified sequence, Human, SEQ ID No. 93; guide sequence of CR003339 (nucleic acid) guide: mA*mC*mA*rCrArArArUrArCrCrArGrUrCrCrArGrCrArGrUrUrUrUrArGrAmGmCmUmAmGmAmAmAmUmAmGmCrArArGrUrUrArArArArUrArArGrGrCrUrArGrUrCrCrGrUrUrArUrCrAmAmCmUmUmGmAmAmAmAmAmGmUmGmGmCmAmCmCmGmAmGmUmCmGmGmUmGmCmU*mU*mU*mU |  |  |  |  |  |  | 12 | 12
18 | G000488: TTR sgRNA modified sequence, Human, SEQ ID No. 95; guide sequence of CR003346 (nucleic acid) guide: mA*mA*mA*rGrUrUrCrUrArGrArUrGrCrUrGrUrCrCrGrGrUrUrUrUrArGrAmGmCmUmAmGmAmAmAmUmAmGmCrArArGrUrUrArArArArUrArArGrGrCrUrArGrUrCrCrGrUrUrArUrCrAmAmCmUmUmGmAmAmAmAmAmGmUmGmGmCmAmCmCmGmAmGmUmCmGmGmUmGmCmU*mU*mU*mU |  |  |  |  |  |  | 0 | 0
